The text below walks through data of US20110105496A1, “Methods For The Treatment Of Myosin Heavy Chain-Mediated Conditions Using 4,7-Dihydrothieno[2,3-B]Pyridine Compounds” (priority 2005, published 2011).

This assay deals with alpha-MyHC. In words: alpha-MyHC cytoblot process in neonatal rat ventricular myocytes (NRVM). The format is cell-based. The conditions noted are these: NRVM, 72 hours; for EC50: alpha-MyHC cytoblot; for Max Plateau: maximum of dose response fit. As for the experimental part:
In vitro activity of each compound is measured using the alpha-MyHC cytoblot process. Briefly, neonatal rat ventricular myocytes (NRVM) at 120,000 cells/ml in HyQ DME/High modified culture media supplemented with 10% charcoal/dextran treated FBS, 0.1% Nutridoma-SP, 1:100 MEM non-essential amino acids, 1:50 MEM amino acids solution w/o L-Gln, 1 mM sodium pyruvate and 1:100 P/S/G, are plated on gelatin coated sterile 384-well plates (Costar 3712) at 6,000 cells per well. Cells are incubated overnight at 37° C. in 5% CO2 100% humidity. Following overnight growth the media is changed to HyQ DME/High modified culture media supplemented with 0.3% Nutridoma-SP, 1:100 MEM non-essential amino acids, 1:50 MEM amino acids solution w/o L-Gln, 1 mM sodium pyruvate and 1:100 P/S/G. Cells are then dosed with serial dilutions of each compound in DMSO. Each concentration in the dose range is dosed in quadruplicate. Dosing is done in such a way so that the final DMSO concentration was 0.44%. Compound dilutions are 3-fold with the final top concentration of 10 uM. […] Following dosing, the cells are incubated for 72 hours at 37° C. in 5% CO2 100% humidity and then processed with the cytoblot method. Briefly, cell media is aspirated and cell monolayers washed with PBS and fixed with 100% methanol for 30 minutes. Fixed cells are then blocked with PBS, 0.05% Tween-20, 1% BSA, for 1 hour. Following blocking, cells are incubated with primary alpha-MyHC-specific antibody antibody (1:30 dilution of BA-G5 hybridoma conditioned media, ATCC HB276) for 1 hour. Following incubation with the primary antibody, cells are washed with PBS, 0.05% Tween-20, 1% BSA and incubated with secondary antibody (1:1000 dilution, goat-anti-mouse HRP, Southern Biotech, 1031-05) for 1 hour. Following incubation with the secondary antibody, wells are washed and incubated in SuperSignal, West Dura HRP-luminescence substrate for 30 seconds under shaking at room temperature. Luminescence is measured using a Packard Fusion plate reader. […] RLU values are converted into per cent fraction of low control and dose responses are fitted to a sigmoidal 4-parameter equation (XLFit, IDBS) where the EC50 and Max Plateau values were extracted. […] Max Plateau is the […] maximum value determined by the dose response fit.

Where [1] appears, read: Table 1, low control = vehicle only.

As for `COC(=O)C1=C(CCc2ccccc2)Nc2sc(C(=O)c3ccc(Cl)c(Cl)c3)c(N)c2C1c1ccccc1F` (stereo not shown) [Compound 154], under “Table 2 (esters)”, it took 303 nM to reach a half-maximal effect (EC50) and the “Max Plateau” value was 125.87 per cent fraction of low control.

As for `CCC1=C(C(=O)OC(C)CC)C(c2ccccc2F)c2c(sc(C(=O)c3cccc(C#N)c3)c2N)N1` (single isomer, unassigned) [Compound 165], under “Table 2 (esters)”, a half-maximal effect (EC50) was put at 12 nM and the “Max Plateau” value is given as 250.83 per cent fraction of low control.

Turning to `CCC(=O)C1=C(CC)Nc2sc(C(=O)c3ccc(F)c(F)c3)c(N)c2C1c1ccccc1F` (stereo not shown) [Compound 108, 1-[3-amino-2-(3,4 difluoro-benzoyl)-6-ethyl-4-(2 fluoro-phenyl)-4,7 dihydro-thieno[2,3-b]pyridine-5-yl]propan-1-one], the “Max Plateau” value under setting [1] is 266.30 ± 58.14 per cent fraction of low control.

Regarding `CCC1=C(C(=O)OC(C)COC)C(c2ccccc2F)c2c(sc(C(=O)c3cccc(Cl)c3)c2N)N1` (stereo not shown) [Compound 181], for the setting “Table 2 (esters)”, the EC50 – broadly, the concentration at which the effect is half-maximal – came to 21 nM and the “Max Plateau” value is 240.80 ± 29.53 per cent fraction of low control.

Compound `CC(=O)C1=C(C)Nc2sc(C(=O)c3ccc(Cl)c(Cl)c3)c(N)c2C1c1ccc(C(F)(F)F)cc1` (stereo not shown) [Compound 48] gave a 50% effective concentration (EC50) (Table 1, mean ± spread) of 5110 nM. Further, the “Max Plateau” value under setting [1] is 190.81 ± 37.09 per cent fraction of low control.

The compound `CCC(=O)C1=C(CC)Nc2sc(C(=O)c3ccc(Cl)c(Cl)c3)c(N)c2C1c1ccccc1` (stereo not shown) [Compound 36] showed a half-maximal effective concentration (EC50) (Table 1, mean ± spread) of 6.18 nM. Moreover, the “Max Plateau” value under setting [1] is on record as 256.56 ± 24.93 per cent fraction of low control.

Take `CC(=O)C1=C(C)Nc2sc(C(=O)c3ccc(Cl)c(Cl)c3)c(N)c2C1c1ccc(CNC(=O)OC(C)(C)C)cc1` (stereo not shown) [Compound 25]: the “Max Plateau” value under setting [1] was 100.00 ± 0.00 per cent fraction of low control.

With `CCC(=O)C1=C(CC)Nc2sc(C(=O)c3ccc(Cl)c(Cl)c3)c(N)c2C1c1ccccc1C(F)(F)F` (stereo not shown) [Compound 60], the “Max Plateau” value under setting [1] is 100.00 ± 0.00 per cent fraction of low control.

Regarding `CCOC(=O)C1=C(CC)Nc2sc(C(=O)c3cccnc3)c(N)c2C1c1ccncc1F` (stereo not shown) [Compound 174, 3-amino-6-ethyl-4-(3 fluoro-pyridin-4-yl)-2-(pyridine-3-carbonyl)-4,7 dihydro-thieno[2,3-b]pyridine-5-carboxylic acid ethyl ester], the “Max Plateau” value (Table 2 (esters)) is 263.57 per cent fraction of low control.

As to `COc1ccccc1C1C(C(C)=O)=C(C)Nc2sc(C(=O)c3ccccc3)c(N)c21` (stereo not shown) [Compound 18], it took 876 nM to reach a half-maximal effect (Table 1, mean ± spread) (EC50). The “Max Plateau” value under setting [1] is recorded as 215.25 ± 44.08 per cent fraction of low control.

Take `CCC1=C(C(=O)OCC(C)C)C(c2ccccc2)c2c(sc(C(=O)c3ccc(Cl)c(Cl)c3)c2N)N1` (stereo not shown) [Compound 161]: under “Table 2 (esters)”, the EC50 was determined as 35.4 nM and the “Max Plateau” value is listed as 232.35 per cent fraction of low control.

The compound `CC(=O)C1=C(C)Nc2sc(C(=O)c3ccccc3)c(N)c2C1c1ccncc1` (stereo not shown) [Compound 19] came in with an EC50 (Table 1, mean ± spread) of 3390 nM. For the same compound, the “Max Plateau” value under setting [1] is listed as 260.00 ± 36.06 per cent fraction of low control.

In the case of `CCC1=C(C(=O)OC2CCCCC2)C(c2ccccc2)c2c(sc(C(=O)c3ccc(Cl)c(Cl)c3)c2N)N1` (stereo not shown) [Compound 160], where the note is “Table 2 (esters)”, the 50% effective concentration (EC50) is 75.4 nM and the “Max Plateau” value is 186.95 per cent fraction of low control.

In the case of `CC(C)C(=O)C1=C(C(C)C)Nc2sc(C(=O)c3ccc(Cl)c(Cl)c3)c(N)c2C1c1ccccc1` (stereo not shown) [Compound 46], the “Max Plateau” value under setting [1] was 98.33 ± 4.08 per cent fraction of low control.

Consider `CCC(=O)C1=C(CC)Nc2sc(C(=O)c3cccc(C(=O)OC)c3)c(N)c2C1c1ccccc1` (stereo not shown) [Compound 74], for which, for the setting “Table 1, mean ± spread”, a half-maximal effect (EC50) was put at 9.84 nM. In addition, the “Max Plateau” value under setting [1] is 262.81 ± 32.38 per cent fraction of low control.

On to `CCC(=O)C1=C(CC)Nc2sc(C(=O)c3ccccc3Cl)c(N)c2C1c1ccccc1` (stereo not shown) [Compound 82], for which the 50% effective concentration (EC50) (Table 1, mean ± spread) amounted to 14.8 nM. In addition, the “Max Plateau” value under setting [1] is listed as 245.96 ± 30.73 per cent fraction of low control.

For `CCC(=O)C1=C(CC)Nc2sc(C(=O)c3cc(F)cc(F)c3)c(N)c2C1c1ccccc1` (stereo not shown) [Compound 76], where the note is “Table 1, mean ± spread”, the 50% effective concentration (EC50) is 24.2 nM. Besides, under setting [1], the “Max Plateau” value was 230.70 ± 23.22 per cent fraction of low control.

Where the note is “Table 1, mean ± spread”, `CC(=O)C1=C(C)Nc2sc(C(=O)c3ccc(Cl)c(Cl)c3)c(N)c2C1c1ccc[nH]1` (stereo not shown) [Compound 42] yielded a half-maximal effective concentration (EC50) of 4590 nM. In addition, under setting [1], the “Max Plateau” value was 160.56 ± 20.02 per cent fraction of low control.

For the compound `CC(=O)C1=C(C)Nc2sc(C(=O)c3ccc(Cl)c(Cl)c3)c(N)c2C1c1ccc(O)cc1` (stereo not shown) [Compound 23], the concentration for a half-maximal effect (EC50) (Table 1, mean ± spread) came to 339 nM. Moreover, under setting [1], the “Max Plateau” value was 277.53 ± 33.46 per cent fraction of low control.

As for `CCC1=C(C(=O)OC(C)COC)C(c2ccccc2F)c2c(sc(C(=O)c3cccc(C#N)c3)c2N)N1` (stereo not shown) [Compound 193], under “Table 2 (esters)”, the response was half-maximal at 77.6 nM (EC50) and the “Max Plateau” value is listed as 230.28 ± 6.46 per cent fraction of low control.

Where the note is “Table 1, mean ± spread”, `CCC(=O)C1=C(CC)Nc2sc(C(=O)c3ccc(F)c(F)c3)c(N)c2C1c1ccccc1` (stereo not shown) [Compound 72] came in with an EC50 of 9.23 nM. Moreover, the “Max Plateau” value under setting [1] is on record as 223.99 ± 24.51 per cent fraction of low control.

`CC(=O)C1=C(C)Nc2sc(C(=O)c3ccc(Cl)c(Cl)c3)c(N)c2C1c1ccccc1Cl` (stereo not shown) [Compound 13] displayed a 50% effective concentration (EC50) (Table 1, mean ± spread) of 82.5 nM. This lies in the double-digit nanomolar range.

For the compound `CC(=O)C1=C(C)Nc2sc(C(=O)c3ccc(Cl)c(Cl)c3)c(N)c2C1c1ccc(C(C)(C)C)cc1` (stereo not shown) [Compound 32], under setting [1], the “Max Plateau” value is on record as 100.00 ± 0.00 per cent fraction of low control.

As for `CCC(=O)C1=C(CC)Nc2sc(C(=O)c3ccc(Cl)c(Cl)c3)c(N)c2C1c1cccc(Cl)c1` (stereo not shown) [Compound 54], a half-maximal effect (Table 1, mean ± spread) (EC50) was put at 0.59 nM. Besides, the “Max Plateau” value under setting [1] is 267.44 ± 32.29 per cent fraction of low control.

`CCC(=O)C1=C(CC)Nc2sc(C(=O)c3ccc(Cl)c(Cl)c3)c(N)c2C1c1c(F)cccc1Cl` (stereo not shown) [Compound 40] yielded a 50% effective concentration (EC50) (Table 1, mean ± spread) of 14.4 nM. Under setting [1], the “Max Plateau” value is recorded as 244.87 ± 7.92 per cent fraction of low control.

In the case of `COc1cccc(C2C(C(C)=O)=C(C)Nc3sc(C(=O)c4ccccc4)c(N)c32)c1` (stereo not shown) [Compound 15], under setting [1], the “Max Plateau” value is 126.50 ± 24.27 per cent fraction of low control.

Regarding `CCC(=O)C1=C(CC)Nc2sc(C(=O)c3c(Cl)cccc3Cl)c(N)c2C1c1ccccc1F` (stereo not shown) [Compound 107], the response (Table 1, mean ± spread) was half-maximal at 1.67 nM (EC50). Further, the “Max Plateau” value under setting [1] is 273.85 ± 29.06 per cent fraction of low control.

For `CCC(=O)C1=C(CC)Nc2sc(C(=O)c3cc(Cl)ccc3Cl)c(N)c2C1c1ccccc1` (stereo not shown) [Compound 64], the EC50 (Table 1, mean ± spread) was found to be 10.2 nM. Further, under setting [1], the “Max Plateau” value was 281.39 ± 54.54 per cent fraction of low control.

Regarding `CC(=O)C1=C(C)Nc2sc(C(=O)c3ccc(Cl)c(Cl)c3)c(N)c2C1(C)c1cccc(F)c1` (stereo not shown) [Compound 207, 1-[3-amino-2-(3,4 dichloro-benzoyl)-4-(3 fluoro-phenyl)-4,6-dimethyl-4,7 dihydro-thieno[2,3-b]pyridin-5-yl]-ethanone], where the note is “Table 4”, the “Max Plateau” value was 148.73 ± 27.95 per cent fraction of low control.

As for `CCC1=C(C(=O)OC)C(c2ccccc2)c2c(sc(C(=O)c3cccc(C#N)c3)c2N)N1` (stereo not shown) [Compound 143], under “Table 2 (esters)”, the EC50 came to 5.24 nM and the “Max Plateau” value is listed as 290.53 per cent fraction of low control.

For the setting “Table 1, mean ± spread”, `CCC(=O)C1=C(CC)Nc2sc(C(=O)c3ccc(Cl)c(Cl)c3)c(N)c2C1c1cccc(F)c1` (stereo not shown) [Compound 84] came in with a concentration for a half-maximal effect (EC50) of 5.4 nM. For the same compound, the “Max Plateau” value under setting [1] is recorded as 242.72 ± 19.34 per cent fraction of low control.

For `COC(=O)C1=C(C(C)C)Nc2sc(C(=O)c3ccc(Cl)c(Cl)c3)c(N)c2C1c1ccccc1` (stereo not shown) [Compound 116], where the note is “Table 2 (esters)”, the midpoint of the response, the EC50, lay at 70 nM and the “Max Plateau” value is given as 107.57 per cent fraction of low control.

Under “Table 1, mean ± spread”, `CCC(=O)C1=C(CC)Nc2sc(C(=O)c3ccc(Cl)cc3)c(N)c2C1c1ccccc1` (stereo not shown) [Compound 80] came in with an EC50 of 103 nM. In addition, under setting [1], the “Max Plateau” value is on record as 226.13 ± 5.25 per cent fraction of low control.

With `CC(=O)C1=C(C)Nc2sc(C(=O)c3cccc([N+](=O)[O-])c3)c(N)c2C1c1ccc(C(=O)O)cc1` (stereo not shown) [Compound 9], the “Max Plateau” value under setting [1] was 100.00 ± 0.00 per cent fraction of low control.

Consider `CC(=O)C1=C(C)Nc2sc(C(=O)c3ccccc3)c(N)c2C1c1ccc(C(F)(F)F)cc1` (stereo not shown) [Compound 44], for which, for the setting “Table 1, mean ± spread”, the EC50 was 1720 nM. Also, the “Max Plateau” value under setting [1] is 186.67 ± 11.55 per cent fraction of low control.

On to `CC(=O)C1=C(C)Nc2sc(C(=O)c3ccc(Cl)c(Cl)c3)c(N)c2C1c1ccc(C)cc1` (stereo not shown) [Compound 45], for which, under setting [1], the “Max Plateau” value is given as 108.63 ± 9.14 per cent fraction of low control.
